Square brackets hold non-standard residues; d marks the D form. Primed or numbered codes have the meaning given here. Ends that are not written are not given here. βVal″ = beta-form valine
Legend:
[1] = tested on: male FVB/N mice on high salt diet, kidney; assay: High salt (5%) diet intervention model, kidney; type: in vivo, mouse; settings: 75 pmol/kg/min s.c., weeks 5-8
human AT2R = biological target: T1, human AT2R (Homo sapiens, UniProt P50052); assay: Competition radioligand binding (125I-Sar1-Ile8-AngII) in AT2R-transfected HEK-293 cells; settings: for Fold AT2R selectivity: AT2R over AT1R, Table 3; for binding at AT2R (displacement of 125I-Sar1-Ile8-AngII), in words: transfected HEK-293 cells
T1 construct: expressed in transfected cells
T1 sequence (P50052 1-363): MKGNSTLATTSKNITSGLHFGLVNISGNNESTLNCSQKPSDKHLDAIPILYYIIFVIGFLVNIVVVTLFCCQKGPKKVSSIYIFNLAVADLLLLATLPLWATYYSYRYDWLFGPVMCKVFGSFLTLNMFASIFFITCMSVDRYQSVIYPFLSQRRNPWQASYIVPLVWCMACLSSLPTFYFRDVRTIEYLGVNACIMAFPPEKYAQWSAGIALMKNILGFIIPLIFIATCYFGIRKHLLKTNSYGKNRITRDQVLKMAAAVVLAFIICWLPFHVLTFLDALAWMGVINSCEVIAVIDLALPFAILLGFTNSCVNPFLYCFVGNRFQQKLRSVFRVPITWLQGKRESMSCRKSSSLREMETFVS

human AT1R = biological target: T2, human AT1R (Homo sapiens, UniProt P30556); assay: Competition radioligand binding (125I-Sar1-Ile8-AngII) in AT1R-transfected HEK-293 cells
T2 construct: expressed in transfected cells
T2 sequence (P30556 1-359): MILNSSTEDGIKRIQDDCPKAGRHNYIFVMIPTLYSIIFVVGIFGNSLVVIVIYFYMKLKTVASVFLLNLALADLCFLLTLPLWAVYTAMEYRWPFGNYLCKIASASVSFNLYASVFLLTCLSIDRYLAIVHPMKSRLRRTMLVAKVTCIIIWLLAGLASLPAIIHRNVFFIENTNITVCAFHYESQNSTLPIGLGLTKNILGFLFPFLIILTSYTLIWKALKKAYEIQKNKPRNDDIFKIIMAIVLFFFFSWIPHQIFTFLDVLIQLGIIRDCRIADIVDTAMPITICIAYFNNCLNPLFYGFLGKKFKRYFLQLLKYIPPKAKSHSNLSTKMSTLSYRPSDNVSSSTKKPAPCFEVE
Procedure: This will lead to the generation of IC50 values that determine the relative ability of test compounds to interact with both Angiotensin receptors.
Cells were grown to approximately 80% confluence before being re-plated into 48 well plates at 1×10^5 cells/well and grown for 48 hours at 37° C. for a whole cell competition binding assay. [125I]-Sar1Ile8Ang II at 50,000 cpm, incubated for 45 minutes at 37° C., in the absence or presence of unlabeled ligands, prepared in binding buffer (DMEM, 0.1% BSA), were used in the competition assays at concentrations ranging from 1 μM to 10 μM. For each experiment, each ligand concentration was tested in duplicate or triplicate, and each experiment was repeated at least 3 separate times. […] The ability of each ligand to inhibit specific binding of [125I]-Sar1Ile8Ang II was measured on a gamma counter with all counts corrected for NSB.

[2] = tested on: male FVB/N mice on high salt diet, kidney; assay: High salt (5%) diet intervention model, kidney; type: in vivo, mouse; settings: 75 pmol/kg/min s.c., weeks 5-8; remark: listed apart in the source
Procedure: (§1) C) In the intervention (or reversal) model, male FVB/N mice were treated with selective AT2Rs agonists after the establishment of cardiovascular disease using a high salt diet, in order to reverse cardiovascular pathologies. In some experiments, the ACE inhibitor captopril (dose) or the ARB candesartan cilexetil (dose) were given for 4 weeks in drinking water. Organs examined included heart, kidney and liver and these were compared to either untreated mice or high salt-fed mice that were treated with saline.
(§2) Mice were placed on either a normal rodent diet (0.35% NaCl) which acted as control or a high salt diet (5% sodium in food chow) for 8 weeks. After 4 weeks, mice were also treated subcutaneously (via osmotic mini-pump) with either saline or an AT2R agonist (75 pmol/kg/min subcutaneously) for 4 weeks. Mice continued to be fed a high salt diet whilst receiving these treatments.
(§3) To measure collagen deposition, frozen sections of heart, kidney or aorta (all 5 μm thickness) were air dried for 10 minutes and were brought through 3 times xylene (2 minutes each), and 3 times absolute alcohol washes before being rinsed in tap H2O for 30 seconds. Staining with an optimal concentration of picrosirius red (in this instance 0.05% picrosirius red diluted in saturated picric acid) was performed and left for an hour. Sections were then rinsed in water and differentiated in 0.01M HCl for 2 minutes, followed by dehydration via 3 times absolute alcohol washes. Then, slides were brought through 3 times xylene washes before being cover slipped according to standard histological techniques using DPX as the mounting medium. Images were taken under ×20 magnification, using bright field (Olympus, BX51) and circularized polarized light microscopy (DM IRB, Leica) while percentage of positive interstitial collagen staining per total field of view was quantified using ImageJ 1.46 software (Java, NIH), and averaged out from a total of eight views as the final percentage collagen content in a particular animal.
Kidney sections used either picrosirius red staining as described above or using Mason's Trichrome staining as described below.
Formalin fixed, paraffin embedded kidneys were sectioned at thickness of 4 μm and were stained with Masson's trichrome according to standard procedures for analysis of kidney fibrosis. […] Sections were re-fixed in Bouin's solution for 1 hour at 56° C. to improve staining quality then rinsed in running tap water for 5-10 minutes to remove yellow colour. Following this, sections were stained in Weigert's iron hematoxylin working solution for 10 minutes. Rinsed in running warm tap water for 10 minutes. Washed in distilled water. Stained in Biebrich scarlet-acid fuchsin solution for 10-15 minutes. Washed in distilled water. Differentiated in phosphomolybdic-phosphotungstic acid solution for 10-15 minutes or until collagen was no longer red. Sections were transferred directly (without rinse) to aniline blue solution and stained for 5-10 minutes. Rinsed briefly in distilled water and differentiated in 1% acetic acid solution for 2-5 minutes. Washed in distilled water. […] Mounted with DPX mounting medium.
Quantification of kidney fibrosis was performed using images captured with the Aperio scanner (Monash Histology Platform, Monash University), with ×5 magnification. Each kidney section had 5 different fields of view photographed at this magnification. Percentage of tubulointerstitial collagen was analysed and quantified using ImageJ 1.48 software (Java, NIH), and the percentage from 5 random fields of view were averaged for final percentage of collagen for that particular animal. All analysis of collagen expression was conducted in a blinded fashion.

[3] = tested on: male FVB/N mice on high salt diet, heart; assay: High salt (5%) diet intervention model, heart; type: in vivo, mouse; settings: for cardiac fibrosis by hydroxyproline analysis (LV collagen content) / cardiac oxidative stress (DHE staining) / myofibroblast differentiation in heart (α-SMA): 75 pmol/kg/min s.c.; for cardiac fibrosis by hydroxyproline analysis (LV collagen content) / cardiac oxidative stress (DHE staining) / myofibroblast differentiation in heart (α-SMA) / expression of P-IκBα (marker for NFκB activation) in heart: weeks 5-8; for expression of P-IκBα (marker for NFκB activation) in heart: peptides 75 pmol/kg/min s.c., captopril 3 mg/kg/day; for expression of P-IκBα (marker for NFκB activation) in heart / cardiac fibrosis (picrosirius red): Cand 2 mg/kg/day; for cardiac fibrosis (picrosirius red): weeks 5-8 of high salt diet, peptides 75 pmol/kg/min s.c. mini-pump, captopril 3 mg/kg/day in drinking water
Procedure: as §1
A high-salt diet (5% salt) model is a clinically relevant and disease-reversal model which can replicate the high salt intake by humans which is currently a growing problem in the developed countries. High salt intake induces changes in the cardiovascular system and induces remodelling and fibrosis in the heart, kidney and liver.
as §2
All mice which underwent surgery were anaesthetized with Isoflurane (Isorrane) (5% induction and 2.5% maintenance) and an incision made in the midscapular region through which osmotic minipumps (Alzet model 2004, Alza Corp) were inserted for subcutaneous drug administration. The incision area was sutured with 6/0 DY silk (Dynek Pty Ltd) and antibiotic powder applied (Cicatrin, Pfizer) followed by intramuscular injection of the analgesic Cartrophen (0.1 ml of a 1.5 mg/ml stock solution; Biopharm Australia). Systolic blood pressure (SBP) was measured using non-invasive tail-cuff plethysmography apparatus (MC4000 Blood Pressure Analysis System, Hatteras Instrument Inc) before drug treatment (week 0), and then fortnightly. At the end of the 8 week treatment period mice were weighed before being killed by overdose of isoflurane inhalation and cervical dislocation.
as §3
Immunostaining was performed on 5 μm thick transverse frozen heart sections. These sections were air dried and fixed in ice-cold acetone for approximately 15 minutes before washing with 0.01M PBS buffer (3×10 minutes). Sections were then incubated with 10% goat serum in 0.01M PBS for 30 minutes to reduce non-specific binding. If the primary antibody is raised in goat, this pre-blocked medium is substituted with 5% BSA in PBS and Triton-X. Next, blocking buffers were removed and the primary antibody to respective markers were applied overnight at room temperature based on the following dilution and origin of the antibodies: α-SMA (1:500, Abcam), Vimentin (1:500, Santa Cruz), P-IκBα (1:200, Cell Signalling), F4/80 macrophage (1:100, Serotec). […]

[4] = tested on: human cardiac fibroblasts; assay: TGF-β1-induced collagen production in human cardiac fibroblasts (Western blot); type: cell-based; settings: co-treated with TGF-β1 for 3 days, increasing concentrations up to 1 μM
Procedure: D) Human cardiac fibroblasts (HCFs) were treated with TGFβ1 to induce a pro-fibrotic phenotype state in cell culture, exemplified by increased collagen-1 production, measured by Western blot. HCFs were treated with TGFβ1 alone, or in the presence of an AT2R agonist for 3 days, and the ability of AT2R agonists to inhibit TGFβ1-induced collagen-1 production was measured.
Commercially available human cardiac fibroblasts (HCF, Catalog #6300, Sciencell, Calif., USA) were grown in T75 flask maintained in an incubator at 37° C., 5% CO2. Complete media composition: M199 media (#11150-059, life technologies)+10% FBS (#10437-028, life technologies)+1% Fibroblast Growth Supplement-2 (#2382, ScienCell)+1% penicillin/streptomycin 10,000 U/ml antibiotics (#15140-122, Life Technologies). Fresh complete media was replenished every alternate day until culture reached 70% confluence in which media is replenished daily until it reached approximately 90% confluence in order to passage/subculture. To subculture, media was discarded and culture was rinsed with warm PBS. After which, culture was detached using warm 0.05% Trypsin+EDTA with gentle swirling of flask to make sure cells were not adherent to surface of flask. Trypsin was then neutralized with complete media and suspension was then transferred into a new falcon tube and centrifuged at 1000 rpm for 5 minutes. Supernatant was discarded and pellet of cells were resuspended with 5 ml of complete media, followed by cell counting. For subculturing/passaging, 1 million HCFs are placed into a T75 flask. For Picrosirius Red (PSR) staining or immunofluorescence experiments, 100 k cells were loaded per well in a 24 well plate lined with round coverslips. […]
Once treatment is complete, cells were washed with warm PBS and detached using Accutase (A6964, Sigma), with 5 minutes incubation at 37° C. […] The supernatant (˜20 ul) was transferred to a new tube and protein concentrations were measured using Biorad Lowry protein assay. Protein quantification of respective markers were performed via standard western blot analysis. […]

Row | Fold AT2R selectivity (human AT2R) | AT2R/AT1R selectivity ratio (human AT2R; approximate or conservatively estimated, listed as β-Pro^7-Trp^8-Ang III) | binding at AT2R (displacement of 125I-Sar1-Ile8-AngII), in words (human AT2R) | binding at AT1R (displacement of 125I-Sar1-Ile8-AngII), in words (human AT1R) | Substance | macrophage infiltration in kidney (F4/80) [1] | renal fibrosis by hydroxyproline analysis [1] | renal inflammation (phospho-IκBα expression) [1] | kidney glomerular fibrosis (picrosirius red) [2] | kidney tubulointerstitial fibrosis (picrosirius red) [2] | cardiac fibrosis by hydroxyproline analysis (LV collagen content) [3] | cardiac oxidative stress (DHE staining) [3] | myofibroblast differentiation in heart (α-SMA) [3] | expression of P-IκBα (marker for NFκB activation) in heart [3] | cardiac fibrosis (picrosirius red) [3] | TGF-β1-induced collagen production [4]
1 | >400,000 fold | > 400,000 fold | high affinity | bind poorly | Arg-Val-Tyr-Ile-His-β-Pro-Trp [βPro-Trβ-8-Ang III] | reversed high salt-induced macrophage infiltration in the kidney | reversed the pro-fibrotic effects of high salt in the kidney | reversed high salt-induced renal inflammation in the kidney | reversed the glomerular fibrosis caused by high salt in the kidney | reversed the tubulointerstitial fibrosis caused by high salt in the kidney | reversed the pro-fibrotic effects of high salt in the heart | reversed the oxidative stress effects of high salt in the heart | reversed myofibroblast differentiation | reversed | reversed cardiac fibrosis | –
2 | >18,000 fold | – | high affinity | bind poorly | D-Arg-Val-Tyr-Ile-His-β-Pro-Trp [D-Arg-βPro-Trp-8-Ang III] | reversed high salt-induced macrophage infiltration in the kidney | reversed the pro-fibrotic effects of high salt in the kidney | reversed high salt-induced renal inflammation in the kidney | reversed the glomerular fibrosis caused by high salt in the kidney | reversed the tubulointerstitial fibrosis caused by high salt in the kidney | reversed the pro-fibrotic effects of high salt in the heart | reversed the oxidative stress effects of high salt in the heart | reversed myofibroblast differentiation | reversed | reversed cardiac fibrosis | –
3 | – | – | – | – | β-Val^3-Ang II: β-substituted Ang II peptide which only has ~50-fold AT2R:AT1R selectivity (DR[βVal″]YIHPF) | – | – | – | – | – | – | – | – | – | – | failed to inhibit
